Values joined by “and” are separate entries in the source; they are usually repeats but may differ in a detail not shown here. Identical values can stand only once. Like-named read-outs stand apart in the source and are kept apart here.
Key:
[1] = target: T1, JAK2(JH1domain-catalytic) (Homo sapiens, UniProt O60674); experiment: KINOMEscan; assay type: binding
T1 construct: JAK2(JH1domain-catalytic); purchased Eurofins DiscoverX KINOMEscan (scanEDGE, 97 kinases)

in vivo = assay type: in vivo, mice; conditions: mice; for concentration at 5 min / concentration at 15 min / concentration at 30 min / concentration at 60 min / concentration at 120 min / concentration at 240 min / concentration at 360 min / concentration at 480 min / concentration at 1440 min: 10 mg/kg, IP 10 mg/kg
[2] = male, CD-1, mouse, CSF, ip, CSF, mean, read-out: CSF concentrations of cmpd 7827_0016 in mice following IP (10 mg/kg) administration, C
[3] = male, CD-1, mouse, brain, ip, brain, individual animals, read-out: Brain concentration, Final
[4] = male, CD-1, mouse, brain, ip, brain, mean, read-out: Brain concentrations of cmpd 7827_0016 in mice following IP (10 mg/kg) administration, C
[5] = male, CD-1, mouse, plasma, ip, plasma, individual animals, read-out: Plasma concentration, Final
[6] = male, CD-1, mouse, plasma, ip, plasma, mean, read-out: Plasma concentrations of cmpd 7827_0016 in mice following IP (10 mg/kg) administration, C

T1 sequence (O60674 810-1132 limits assumed): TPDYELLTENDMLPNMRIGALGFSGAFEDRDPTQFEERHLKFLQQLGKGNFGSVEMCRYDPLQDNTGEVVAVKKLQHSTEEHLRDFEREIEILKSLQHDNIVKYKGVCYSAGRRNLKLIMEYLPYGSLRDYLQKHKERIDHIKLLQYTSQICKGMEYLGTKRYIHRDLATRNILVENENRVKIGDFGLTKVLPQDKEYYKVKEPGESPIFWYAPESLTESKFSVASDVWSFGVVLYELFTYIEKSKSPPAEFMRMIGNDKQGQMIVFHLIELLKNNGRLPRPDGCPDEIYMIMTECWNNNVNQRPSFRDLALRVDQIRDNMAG

**Q.** Which results are given for `O=C(O)C1CCC2(CC1)CC(Nc1ncnc3[nH]c4c(F)cccc4c13)C2` (stereo not shown) [Compound 74, OC(=O)C1CCC2(CC(C2)NC=3N=CN=C4NC=5C(F)=CC=CC5C34)CC1]?
**A.** remaining binding at 10 µM ([1]; 10000 nM, read-out: Percent Control): 0%; Signal (qPCR) ([1]; JAK2, [Compound] 0.001 nM): 2.42e-6 and 2.15e-6; Signal (qPCR) ([1]; JAK2, [Compound] 0.01 nM): 2.35e-6 and 2.44e-6; Signal (qPCR) ([1]; JAK2, [Compound] 0.169 nM): 2.62e-6 and 2.24e-6; Signal (qPCR) ([1]; JAK2, [Compound] 0.508 nM): 2.26e-6 and 2.31e-6; Signal (qPCR) ([1]; JAK2, [Compound] 1.52 nM): 2.56e-6 and 2.32e-6; Signal (qPCR) ([1]; JAK2, [Compound] 13.7 nM): 2.33e-6 and 2.17e-6; Signal (qPCR) ([1]; JAK2, [Compound] 41.2 nM): 2.15e-6 and 2.16e-6; Signal (qPCR) ([1]; JAK2, [Compound] 123 nM): 2.08e-6 and 2e-6; Signal (qPCR) ([1]; JAK2, [Compound] 370 nM): 1.2e-6; Signal (qPCR) ([1]; JAK2, [Compound] 3330 nM): 1.6e-7 and 1.8e-7; Signal (qPCR) ([1]; JAK2, [Compound] 10000 nM): 4e-8; brain and cerebral spinal fluid exposure (in vivo; 10 mg/kg i.p.): only marginal brain and cerebral spinal fluid exposure; concentration at 5 min (in vivo; [2]): 15.7 ng/mL; concentration at 15 min (in vivo; [2]): 70.5 ng/mL; concentration at 30 min (in vivo; [2]): 80.6 ng/mL; concentration at 60 min (in vivo; [2]): 158 ng/mL; concentration at 120 min (in vivo; [2]): 119 ng/mL; concentration at 240 min (in vivo; [2]): 26 ng/mL; concentration at 360 min (in vivo; male, CD-1, mouse, CSF, ip, CSF, individual animals, read-out: CSF concentration, Final): 98.6 ng/mL; concentration at 360 min (in vivo; [2]): 80.9 ng/mL; concentration at 480 min (in vivo; [2]): 7.31 ng/mL; concentration at 1440 min (in vivo; [2]): 10.8 ng/mL; concentration at 5 min (in vivo; [3]): 58.9 ng/g; concentration at 5 min (in vivo; [4]): 61.1 ng/g; concentration at 15 min (in vivo; [3]): 152 ng/g; concentration at 15 min (in vivo; [4]): 135 ng/g; concentration at 30 min (in vivo; [3]): 150 ng/g; concentration at 30 min (in vivo; [4]): 203 ng/g; concentration at 60 min (in vivo; [3]): 182 ng/g; concentration at 60 min (in vivo; [4]): 160 ng/g; concentration at 120 min (in vivo; [4]): 82.1 ng/g; concentration at 240 min (in vivo; [3]): 21.6 ng/g; concentration at 240 min (in vivo; [4]): 24.7 ng/g; concentration at 360 min (in vivo; [3]): 20.8 ng/g; concentration at 360 min (in vivo; [4]): 24.3 ng/g; concentration at 480 min (in vivo; [4]): 26.7 ng/g; concentration at 1440 min (in vivo; [3]): 0 ng/g; concentration at 1440 min (in vivo; [4]): 0 ng/g; concentration at 5 min (in vivo; [5]): 1340 ng/mL; concentration at 5 min (in vivo; [6]): 1150 ng/mL; concentration at 15 min (in vivo; [5]): 3720 ng/mL; concentration at 15 min (in vivo; [6]): 4580 ng/mL; concentration at 30 min (in vivo; [5]): 4610 ng/mL; concentration at 30 min (in vivo; [6]): 6390 ng/mL; concentration at 60 min (in vivo; [5]): 6620 ng/mL; concentration at 60 min (in vivo; [6]): 6670 ng/mL; concentration at 120 min (in vivo; [6]): 3050 ng/mL; concentration at 240 min (in vivo; [6]): 1220 ng/mL; concentration at 360 min (in vivo; [5]): 1220 ng/mL; concentration at 360 min (in vivo; [6]): 1110 ng/mL; concentration at 480 min (in vivo; [6]): 1230 ng/mL; concentration at 1440 min (in vivo; [6]): 83.4 ng/mL; Cmax (in vivo; male, CD-1, mouse, plasma, ip, 10 mg/kg i.p.): 6670 ng/mL; AUC (in vivo; male, CD-1, mouse, plasma, ip, 10 mg/kg i.p., read-out: plasma AUC (converted)): 24200 ng·h/mL

— paper PMC10700596 (Nature Communications, 2023)
